Data from PMC4494771, “Synthesis, structure, and biological activity of novel heterocyclic sulfonyl-carboximidamides” (Monatshefte Fur Chemie, 2013).
≈ marks a conversion by molar mass, not a printed value. Like-named read-outs stand apart in the source and are kept apart here.

Key:
[1] = tested on: neonatal human dermal fibroblasts (ATCC PCS-201-010); assay: Cytotoxic activity, fibroblast proliferation (sulforhodamine B); assay type: cell-based; settings: for cytotoxic activity on fibroblast proliferation: 96 h, 6.25–100 μg/cm^3
Experimental: Passage for normal neonatal human dermal fibroblasts (ATCC PCS-201-010, lot 58243223) were grown in DMEM with 5 % calf serum (Hyclone). For the experiment, cells were plated in DMEM/5 % serum at 2,000 cells/well in 96 well plates (plate 598) and were exposed to test materials for 96 h. MAP and bFGF were used as the positive controls and water, 1, 0.5, and 0.25 % DMSO were used as the negative controls. Plate growth was stopped and cells were stained with a sulforhodamine B dye. The dye was then dissolved and a colorimetric signal proportional to total cell/protein count was quantified with the BioRad microplate spectrophotometer 3550-UV at 570 nm with background subtraction at 660 nm and analyzed with Microplate Manager v.2 software for Macintosh (BioRad). Error bars represent standard errors of the mean (SEM). P values representing statistical significance were calculated using the t test.

[2] = tested on: P. acnes ATCC 11827; assay: Antibacterial activity, MIC in broth serial dilution; settings: for MIC: Cutibacterium acnes, ATCC11827, 72 h, read-out: MIC P. acnes, P. acnes ATCC 11827, 72 h anaerobic
Experimental: Compounds were tested at serial dilutions in bacterial broth starting at 100 μg/cm^3 (final concentration). P. acnes (ATCC 11827, lot 419697) was grown in thioglycollate nutrient broth (Hardy Diagnostics K29) for 72 h at 33 °C, then inoculated at the density equivalent to 0.5 McFarland standard and incubated with the test materials for another 72 h in an anaerobic environment. […] At the end of the incubation the MIC was assessed optically as the lowest concentration of a test material which caused no bacteria growth [34]. This optical assessment was further confirmed by measuring the absorbance at 655 nm with the BioRad 3550-UV microplate reader. The MIC was defined as at least 50 % inhibition of the increase of OD.

[3] = tested on: Mycobacterium tuberculosis H37Rv strain; assay: Tuberculostatic activity, classical test-tube method of successive dilution; assay type: cell-based
[4] = tested on: M. tuberculosis sp. 192; assay: as above; assay type: cell-based; settings: Mycobacterium tuberculosis; sp. 192, fully sensitive wild strain
[5] = tested on: UO-31; assay: NCI-60 DTP human tumor cell line screening; assay type: cell-based; settings: for inhibition at 10 µM: Homo sapiens
[6] = tested on: panel of 60 human tumor cell lines; assay: NCI-60 DTP human tumor cell line screening, whole panel; settings: 10 μM, mean of growth percent for all tested cell lines
[7] = tested on: MALME-3M; assay: NCI-60 DTP human tumor cell line screening; assay type: cell-based; settings: Homo sapiens; one dose 10 μM, Melanoma MALME-3M; read-out: Growth inhibition ΔGI
[8] = tested on: A498; assay: NCI-60 DTP human tumor cell line screening; assay type: cell-based; settings: Homo sapiens; one dose 10 μM, Renal cancer A498; read-out: Growth inhibition ΔGI
[9] = tested on: SNB-75; assay: NCI-60 DTP human tumor cell line screening; assay type: cell-based; settings: Homo sapiens; one dose 10 μM, CNS cancer SNB-75; read-out: Growth inhibition ΔGI
[10] = tested on: HOP-92; assay: NCI-60 DTP human tumor cell line screening; assay type: cell-based; settings: Homo sapiens; one dose 10 μM, Non-small cell lung cancer HOP-92; read-out: Growth inhibition ΔGI
[11] = tested on: NCI-H522; assay: NCI-60 DTP human tumor cell line screening; assay type: cell-based; settings: Homo sapiens; one dose 10 μM, Non-small cell lung cancer NCI-H522; read-out: Growth inhibition ΔGI
[12] = tested on: Mycobacterium tuberculosis H37Rv, sp. 210 and sp. 192; assay: Tuberculostatic activity, three tested strains together; assay type: cell-based
[13] = UO-31, one dose 10 μM, Renal cancer UO-31, read-out: Growth inhibition ΔGI

NC(=NS(=O)(=O)c1ccccc1Cl)c1ccccn1 [Compound 1, N′-[(2-Chlorophenyl)sulfonyl]-2-pyridinecarboximidamide]
growth inhibitory activity ([1]; 100 μg/cm^3): 88% | cytotoxic effect ([1]; 6.25–12.5 μg/cm^3): no cytotoxic effect was evident | cytotoxic activity on fibroblast proliferation [1]: weak inhibitory activity | melting point: 140 to 142 °C | MIC [2]: 12.5 to 50 µg/mL (≈ 42.3 to 169 µM) | MIC P. acnes ([2]; P. acnes ATCC 11827, 72 h anaerobic): 25 µg/mL (≈ 84.5 µM)

NC(=NS(=O)(=O)c1cnccc1Cl)c1ccccn1 [Compound 2, N′-[(4-Chloropyridin-3-yl)sulfonyl]-2-pyridinecarboximidamide]
MIC [3]: 50 µg/mL (≈ 168 µM) | MIC [4]: 50 µg/mL (≈ 168 µM) | cytotoxic activity on fibroblast proliferation [1]: no cytotoxic activity | inhibition at 10 µM ([5]; UO-31, read-out: Growth inhibition ΔGI): 20.4% | Growth percent mean values (MG_MID) [6]: 98.2%

N/C(=N\S(=O)(=O)c1ccccc1Cl)c1cccnc1 [Compound 3, (Z)-N′-[(2-Chlorophenyl)sulfonyl]-3-pyridinecarboximidamide]
melting point: 188 to 190 °C | MIC [2]: > 100 µg/mL

N/C(=N\S(=O)(=O)c1cnccc1Cl)c1cccnc1 [Compound 4, (Z)-N′-[(4-Chloropyridin-3-yl)sulfonyl]-3-pyridinecarboximidamide]
inhibition at 10 µM [7]: 20% | inhibition at 10 µM [8]: 24.1% | MIC [2]: > 100 µg/mL | Growth percent mean values (MG_MID) [6]: 104.8%

NC(=NS(=O)(=O)c1ccccc1Cl)c1ccncc1 [Compound 5, N′-[(2-Chlorophenyl)sulfonyl]-4-pyridinecarboximidamide]
melting point: 182 to 185 °C | MIC [2]: > 100 µg/mL

NC(=NS(=O)(=O)c1cnccc1Cl)c1ccncc1 [Compound 6, N′-[(4-Chloropyridin-3-yl)sulfonyl]-4-pyridinecarboximidamide]
melting point: 215 to 218 °C | MIC [2]: > 100 µg/mL

NC(=NS(=O)(=O)c1ccccc1Cl)c1ncccn1 [Compound 7, N′-[(2-Chlorophenyl)sulfonyl]pyrimidine-2-carboximidamide]
MIC [3]: 50 µg/mL (≈ 168 µM) | MIC [4]: 50 µg/mL (≈ 168 µM) | inhibition at 10 µM [5, 13]: 19.4% | MIC [2]: > 100 µg/mL | Growth percent mean values (MG_MID) [6]: 103.0%

NC(=NS(=O)(=O)c1cnccc1Cl)c1ncccn1 [Compound 8, N′-[(4-Chloropyridin-3-yl)sulfonyl]pyrimidine-2-carboximidamide]
MIC [3]: 50 µg/mL (≈ 168 µM) | MIC [4]: 50 µg/mL (≈ 168 µM) | melting point: 162 to 163 °C | MIC [2]: > 100 µg/mL

NC(=NS(=O)(=O)c1ccccc1Cl)c1cnccn1 [Compound 9, N′-[(2-Chlorophenyl)sulfonyl]pyrazine-2-carboximidamide]
melting point: 173 to 174 °C | MIC [2]: > 100 µg/mL

NC(=NS(=O)(=O)c1cnccc1Cl)c1cnccn1 [Compound 10, N′-[(4-Chloropyridin-3-yl)sulfonyl]pyrazine-2-carboximidamide]
MIC [3]: 50 µg/mL (≈ 168 µM) | MIC [4]: 25 µg/mL (≈ 84 µM) | inhibition at 10 µM [9]: 19.3% | MIC [2]: > 100 µg/mL | Growth percent mean values (MG_MID) [6]: 101.9%

NC(=NS(=O)(=O)c1ccccc1Cl)c1cncc(Cl)n1 [Compound 11, 6-Chloro-N′-(2-chlorophenylsulfonyl)pyrazine-2-carboximidamide]
inhibition at 10 µM [7]: 22.6% | inhibition at 10 µM [5, 13]: 19.4 to 21.1% | Growth inhibition ΔGI ([5]; one dose 10 μM, Renal cancer UO-31): 22.6% | MIC [2]: > 100 µg/mL | Growth percent mean values (MG_MID) [6]: 102.1%

NC(=NS(=O)(=O)c1cnccc1Cl)c1cncc(Cl)n1 [Compound 12, 6-Chloro-N′-[(4-chloropyridin-3-yl)sulfonyl]pyrazine-2-carboximidamide]
inhibition at 10 µM [10]: 25.9% | inhibition at 10 µM [11]: 143% | MIC [2]: > 100 µg/mL | Growth percent mean values (MG_MID) [6]: 97.8%

COc1cncc(C(N)=NS(=O)(=O)c2ccccc2Cl)n1 [Compound 13, N′-(2-Chlorophenylsulfonyl)-6-methoxypyrazine-2-carboximidamide]
melting point: 227 to 230 °C | MIC [2]: > 100 µg/mL

COc1cncc(C(N)=NS(=O)(=O)c2cnccc2Cl)n1 [Compound 14, N′-[(4-Chloropyridin-3-yl)sulfonyl]-6-methoxypyrazine-2-carboximidamide]
melting point: 265 to 270 °C (dec.) | MIC [2]: > 100 µg/mL

NC(=NS(=O)(=O)c1cnccc1Cl)c1ccc2ccccc2n1 [Compound 16, N′-[(4-Chloropyridin-3-yl)sulfonyl]quinoline-2-carboximidamide]
MIC [2]: > 100 µg/mL

NNC(=O)c1ccncc1 [INH, isoniazid, reference compound]
MIC [3]: 0.5 µg/mL (≈ 3.65 µM) | MIC [4]: 0.5 µg/mL (≈ 3.65 µM) | MIC [12]: 0.5 to 1 µg/mL (≈ 3.65 to 7.29 µM)
